Test results reported in ChEMBL document CHEMBL1201862, “PubChem BioAssay data set” (2004).
Active and inactive are the calls of the source.

What was measured:
[1] = target: Ras and Rab interactor 1/Tyrosine-protein kinase ABL1 (Homo sapiens, UniProt P00519+Q13671); assay type: functional;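 further: biochemical TR-FRET dose-response test measuring inhibition of binding between Rin1 and Abl proteins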
[2] = target: Nonstructural protein 1 (Influenza A virus, UniProt Q194T2); assay type: functional, Influenza A virus (A/California/07/2009(H1N1))
Chain of Nonstructural protein 1 (Q194T2 whole entry): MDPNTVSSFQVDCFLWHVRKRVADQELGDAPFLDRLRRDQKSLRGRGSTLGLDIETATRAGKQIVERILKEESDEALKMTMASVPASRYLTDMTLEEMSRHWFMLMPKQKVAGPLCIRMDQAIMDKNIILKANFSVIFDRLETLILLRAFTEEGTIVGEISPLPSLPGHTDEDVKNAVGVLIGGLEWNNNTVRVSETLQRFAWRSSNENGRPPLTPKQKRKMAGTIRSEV

[3] = AlphaScreen signal interference compounds, dose response, artefact control for ARNT-TACC3 interaction inhibitor project, biochemical, luminescence, cherry-pick (AID 651705); assay type: functional;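 further: AlphaScreen bead proximity signal that flags compounds interfering with the detection technology; potency reflects signal decrease which marks the compound as an assay artifact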
[4] = miR-122 activators in hepatoma reporter cells, dose response, cell-based, Huh7 psiCHECK-miR122, Renilla luciferase, cherry-picked (AID 651956); assay type: functional;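 further: huh7 hepatoma cells stably carrying a psiCHECK-2 miR-122 sensor plasmid; renilla luciferase signal reporting endogenous miR-122 activity after 48 h compound exposure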
[5] = target: T1, Nuclear receptor subfamily 0 group B member 1 (Homo sapiens, UniProt P51843); assay type: functional, cell-based;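 further: HEK293T cells transfected with SF-1 and DAX-1 plus StAR promoter luciferase reporter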
T1 sequence (P51843 whole entry): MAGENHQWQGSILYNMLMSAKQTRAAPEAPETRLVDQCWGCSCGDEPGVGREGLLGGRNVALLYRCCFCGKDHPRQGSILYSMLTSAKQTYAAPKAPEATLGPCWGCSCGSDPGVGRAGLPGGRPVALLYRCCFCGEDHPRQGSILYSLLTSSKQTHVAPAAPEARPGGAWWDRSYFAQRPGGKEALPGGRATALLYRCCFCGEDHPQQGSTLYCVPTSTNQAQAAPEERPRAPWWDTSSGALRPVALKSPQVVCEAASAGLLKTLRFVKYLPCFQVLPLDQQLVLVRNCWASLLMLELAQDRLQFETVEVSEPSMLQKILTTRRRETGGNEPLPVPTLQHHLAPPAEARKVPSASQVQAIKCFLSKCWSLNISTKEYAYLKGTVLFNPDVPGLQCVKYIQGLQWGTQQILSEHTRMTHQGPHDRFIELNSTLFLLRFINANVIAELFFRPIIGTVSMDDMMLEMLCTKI

[6] = cells; assay type: functional, cell-based
[7] = target: T2, Methionyl-tRNA synthetase, putative (Trypanosoma brucei brucei, UniProt Q38C91); assay type: functional, Trypanosoma brucei brucei strain 927/4 GUTat10.1
T2 sequence (Q38C91 whole entry): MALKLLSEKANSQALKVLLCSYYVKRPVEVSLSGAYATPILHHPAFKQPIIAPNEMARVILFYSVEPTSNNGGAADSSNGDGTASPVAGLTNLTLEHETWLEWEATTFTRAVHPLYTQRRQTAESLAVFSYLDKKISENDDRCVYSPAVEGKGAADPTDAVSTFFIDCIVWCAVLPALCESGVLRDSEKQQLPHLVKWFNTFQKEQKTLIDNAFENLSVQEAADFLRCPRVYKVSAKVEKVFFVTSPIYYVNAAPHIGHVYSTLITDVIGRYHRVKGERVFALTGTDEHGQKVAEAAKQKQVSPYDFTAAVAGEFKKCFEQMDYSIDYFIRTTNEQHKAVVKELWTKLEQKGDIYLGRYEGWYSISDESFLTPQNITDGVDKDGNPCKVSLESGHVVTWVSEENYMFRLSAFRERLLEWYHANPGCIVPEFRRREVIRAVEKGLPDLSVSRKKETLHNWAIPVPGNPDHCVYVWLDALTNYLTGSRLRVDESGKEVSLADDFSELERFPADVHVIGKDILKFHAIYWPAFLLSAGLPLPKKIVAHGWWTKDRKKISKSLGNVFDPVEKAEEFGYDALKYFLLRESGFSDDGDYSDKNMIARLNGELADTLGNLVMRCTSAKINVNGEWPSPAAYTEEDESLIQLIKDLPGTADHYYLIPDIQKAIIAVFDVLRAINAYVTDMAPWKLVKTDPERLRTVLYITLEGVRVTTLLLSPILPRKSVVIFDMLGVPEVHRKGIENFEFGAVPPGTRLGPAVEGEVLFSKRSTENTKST

[8] = Counterscreen for inhibitors of Trypanosoma brucei methionyl tRNA synthetase (MetRS): Luminescence-based cell-based high throughput dose response assay to identify compounds that are cytotoxic to Jurkat human T lymphocyte cells.; assay type: functional
[9] = target: T2, Methionyl-tRNA synthetase, putative; assay type: functional, Trypanosoma brucei brucei strain 927/4 GUTat10.1; remark: listed apart in the source
[10] = target: T3, fMet-Leu-Phe receptor (Homo sapiens, UniProt P21462); assay: FPR ligands, dose response (AID 519); assay type: functional
T3 sequence (P21462 whole entry): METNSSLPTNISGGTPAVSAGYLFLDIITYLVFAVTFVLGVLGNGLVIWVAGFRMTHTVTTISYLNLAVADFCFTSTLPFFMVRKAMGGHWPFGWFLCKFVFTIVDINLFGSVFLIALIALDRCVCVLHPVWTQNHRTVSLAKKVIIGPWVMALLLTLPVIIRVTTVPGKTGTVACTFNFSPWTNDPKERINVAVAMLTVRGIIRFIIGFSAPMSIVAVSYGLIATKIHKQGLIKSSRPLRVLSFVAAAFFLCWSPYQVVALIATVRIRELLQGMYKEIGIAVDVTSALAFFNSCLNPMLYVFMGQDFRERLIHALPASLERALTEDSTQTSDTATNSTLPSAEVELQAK

[11] = cells; assay type: functional, cell-based; remark: listed apart in the source
[12] = target: T4, Trace amine-associated receptor 1 (Homo sapiens, UniProt Q96RJ0); assay: Fluorescence-based cell-based high throughput dose response assay to identify agonists of the human trace amine associated receptor 1 (TAAR1).; assay type: functional
T4 sequence (Q96RJ0 whole entry): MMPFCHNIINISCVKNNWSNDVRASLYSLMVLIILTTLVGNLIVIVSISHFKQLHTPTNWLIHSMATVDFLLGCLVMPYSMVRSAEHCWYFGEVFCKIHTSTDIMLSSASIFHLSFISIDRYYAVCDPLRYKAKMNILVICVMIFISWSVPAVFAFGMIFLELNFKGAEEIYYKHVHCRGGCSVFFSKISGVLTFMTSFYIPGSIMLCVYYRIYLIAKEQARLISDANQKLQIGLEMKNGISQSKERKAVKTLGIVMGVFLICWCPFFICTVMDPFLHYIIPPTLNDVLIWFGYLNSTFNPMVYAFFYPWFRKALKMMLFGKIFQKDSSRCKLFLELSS

[13] = target: T4, Trace amine-associated receptor 1; assay: Counterscreen for agonists of the human trace amine associated receptor 1 (hTAAR1): Fluorescence-based cell-based high throughput dose response assay to identify hTAAR1 agonist that also desensitize TAAR1 receptor response.; assay type: functional
[14] = tested on: H4; assay: Luminescence Cell-Based Dose Response HTS to Identify Activators of 5'UTR Stem-Loop Driven Prion Protein mRNA Translation in H4 Neuroglioblastoma Cells. [Related pubchem assays: 1829 (Project Summary), 1814 (Primary HTS)]; assay type: functional; conditions: Homo sapiens
[15] = cells; assay type: functional, cell-based; remark: listed apart in the source
[16] = Luminescence Cell-Based Dose Response HTS to Identify Activators of Luciferase Translation or Activity in H4 […] Cells. [Related pubchem assays: 1829 (Project Summary), 1814 (Primary HTS)]; assay type: functional
[17] = target: Genome polyprotein (dengue virus type 2, UniProt P29990); assay: Dengue-2 NS5 methyltransferase inhibitors, primary screen, biochemical, confirmation dose response (AID 588689); assay type: functional
Chain of Genome polyprotein (P29990 2492-3391 limits assumed): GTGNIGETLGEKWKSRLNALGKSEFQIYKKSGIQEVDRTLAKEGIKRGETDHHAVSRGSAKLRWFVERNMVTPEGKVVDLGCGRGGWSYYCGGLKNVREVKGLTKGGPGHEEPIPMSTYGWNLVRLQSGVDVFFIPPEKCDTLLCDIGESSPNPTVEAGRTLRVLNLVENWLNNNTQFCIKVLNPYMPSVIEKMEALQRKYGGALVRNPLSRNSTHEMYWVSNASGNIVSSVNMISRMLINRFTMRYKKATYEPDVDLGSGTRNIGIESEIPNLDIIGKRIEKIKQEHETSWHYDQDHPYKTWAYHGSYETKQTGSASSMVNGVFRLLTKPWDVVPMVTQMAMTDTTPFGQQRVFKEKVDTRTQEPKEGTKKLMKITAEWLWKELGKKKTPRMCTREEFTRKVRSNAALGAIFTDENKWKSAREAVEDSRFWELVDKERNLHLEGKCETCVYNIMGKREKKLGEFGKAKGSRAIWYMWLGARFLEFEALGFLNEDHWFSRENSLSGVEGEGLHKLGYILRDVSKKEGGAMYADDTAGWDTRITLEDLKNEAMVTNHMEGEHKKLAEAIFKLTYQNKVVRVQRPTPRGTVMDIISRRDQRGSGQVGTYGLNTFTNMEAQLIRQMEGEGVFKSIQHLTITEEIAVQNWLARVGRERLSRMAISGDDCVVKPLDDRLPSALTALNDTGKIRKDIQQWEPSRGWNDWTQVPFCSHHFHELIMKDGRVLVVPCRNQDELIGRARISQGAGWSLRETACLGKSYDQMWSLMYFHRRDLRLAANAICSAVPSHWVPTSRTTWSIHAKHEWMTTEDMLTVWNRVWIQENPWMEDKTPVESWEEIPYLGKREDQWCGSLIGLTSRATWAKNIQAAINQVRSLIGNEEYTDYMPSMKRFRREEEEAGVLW

[18] = target: T5, Leucine aminopeptidase (Plasmodium falciparum 3D7, UniProt Q8IL11); assay: P. falciparum M17LAP inhibitors, primary screen, biochemical, fluorogenic H-Leu-NHMec substrate, 1536-well (AID 1619); assay type: functional
T5 sequence (Q8IL11 whole entry): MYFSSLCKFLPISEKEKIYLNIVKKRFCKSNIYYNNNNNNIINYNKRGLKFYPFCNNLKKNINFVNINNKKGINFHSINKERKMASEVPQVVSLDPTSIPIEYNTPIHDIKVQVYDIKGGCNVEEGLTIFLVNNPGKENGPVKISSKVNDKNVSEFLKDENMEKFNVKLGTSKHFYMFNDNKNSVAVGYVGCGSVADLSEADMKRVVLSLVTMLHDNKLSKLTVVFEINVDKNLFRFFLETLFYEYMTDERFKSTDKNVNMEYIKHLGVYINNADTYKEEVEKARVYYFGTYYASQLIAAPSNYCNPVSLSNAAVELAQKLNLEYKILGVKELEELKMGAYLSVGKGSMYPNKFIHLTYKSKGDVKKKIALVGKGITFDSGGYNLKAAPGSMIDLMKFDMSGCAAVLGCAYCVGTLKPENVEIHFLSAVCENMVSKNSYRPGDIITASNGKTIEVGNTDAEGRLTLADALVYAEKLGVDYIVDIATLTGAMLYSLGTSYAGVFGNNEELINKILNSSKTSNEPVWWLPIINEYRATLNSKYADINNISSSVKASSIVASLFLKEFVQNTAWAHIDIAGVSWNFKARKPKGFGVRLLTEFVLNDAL

[19] = target: T6, Rac GTPase-activating protein 1 (Homo sapiens, UniProt Q9H0H5); assay: MgcRacGAP GTPase-activating activity inhibitors, confirmation, biochemical, ADP Hunter fluorescence, primary and confirmatory (AID 624330); assay type: functional
T6 sequence (Q9H0H5 whole entry): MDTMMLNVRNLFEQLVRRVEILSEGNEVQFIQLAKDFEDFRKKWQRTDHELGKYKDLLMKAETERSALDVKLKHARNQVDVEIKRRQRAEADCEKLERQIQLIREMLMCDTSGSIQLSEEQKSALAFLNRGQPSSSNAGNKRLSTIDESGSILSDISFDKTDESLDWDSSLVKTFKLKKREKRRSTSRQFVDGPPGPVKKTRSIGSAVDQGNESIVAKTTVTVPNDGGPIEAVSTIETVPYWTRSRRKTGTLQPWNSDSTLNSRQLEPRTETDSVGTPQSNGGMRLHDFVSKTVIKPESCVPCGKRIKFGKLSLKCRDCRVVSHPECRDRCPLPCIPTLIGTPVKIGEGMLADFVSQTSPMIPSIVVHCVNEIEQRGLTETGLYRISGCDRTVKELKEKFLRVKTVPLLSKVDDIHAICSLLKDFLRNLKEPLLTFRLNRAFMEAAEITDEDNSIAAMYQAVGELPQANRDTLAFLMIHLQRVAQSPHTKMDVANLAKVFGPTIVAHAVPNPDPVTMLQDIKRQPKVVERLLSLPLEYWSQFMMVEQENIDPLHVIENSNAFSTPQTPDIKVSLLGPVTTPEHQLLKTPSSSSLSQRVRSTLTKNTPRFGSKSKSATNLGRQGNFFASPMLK

Chain of Ras and Rab interactor 1/Tyrosine-protein kinase ABL1 (P00519 whole entry): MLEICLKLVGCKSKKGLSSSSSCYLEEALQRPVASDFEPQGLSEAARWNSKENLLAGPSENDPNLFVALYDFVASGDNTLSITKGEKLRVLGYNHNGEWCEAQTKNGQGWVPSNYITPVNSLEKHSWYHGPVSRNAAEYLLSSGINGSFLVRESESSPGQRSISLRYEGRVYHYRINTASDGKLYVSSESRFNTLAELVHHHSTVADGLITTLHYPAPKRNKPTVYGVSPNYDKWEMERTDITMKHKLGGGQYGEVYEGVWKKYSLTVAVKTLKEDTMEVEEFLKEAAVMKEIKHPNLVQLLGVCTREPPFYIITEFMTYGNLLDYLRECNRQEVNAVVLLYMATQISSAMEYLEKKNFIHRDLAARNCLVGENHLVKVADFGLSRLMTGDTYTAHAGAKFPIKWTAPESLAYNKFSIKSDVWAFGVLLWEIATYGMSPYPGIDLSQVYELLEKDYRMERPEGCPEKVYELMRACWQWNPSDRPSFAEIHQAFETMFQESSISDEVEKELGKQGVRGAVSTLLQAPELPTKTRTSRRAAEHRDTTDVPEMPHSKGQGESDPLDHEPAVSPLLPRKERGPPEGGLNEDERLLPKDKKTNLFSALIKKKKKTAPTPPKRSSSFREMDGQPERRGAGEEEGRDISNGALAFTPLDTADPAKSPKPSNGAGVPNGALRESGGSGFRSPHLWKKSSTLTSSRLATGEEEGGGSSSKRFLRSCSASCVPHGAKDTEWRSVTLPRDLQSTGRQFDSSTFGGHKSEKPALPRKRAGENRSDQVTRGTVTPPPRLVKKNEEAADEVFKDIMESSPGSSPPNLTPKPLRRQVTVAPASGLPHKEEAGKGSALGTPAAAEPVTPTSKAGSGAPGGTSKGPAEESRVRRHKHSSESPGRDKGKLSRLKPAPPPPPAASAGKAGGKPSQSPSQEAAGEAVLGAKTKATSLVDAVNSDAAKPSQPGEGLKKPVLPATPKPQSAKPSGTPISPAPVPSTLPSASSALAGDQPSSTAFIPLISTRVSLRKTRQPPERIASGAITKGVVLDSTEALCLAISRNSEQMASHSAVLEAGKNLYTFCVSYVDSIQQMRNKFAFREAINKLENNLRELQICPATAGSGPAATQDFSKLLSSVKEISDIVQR
Chain of Ras and Rab interactor 1/Tyrosine-protein kinase ABL1 (Q13671 whole entry): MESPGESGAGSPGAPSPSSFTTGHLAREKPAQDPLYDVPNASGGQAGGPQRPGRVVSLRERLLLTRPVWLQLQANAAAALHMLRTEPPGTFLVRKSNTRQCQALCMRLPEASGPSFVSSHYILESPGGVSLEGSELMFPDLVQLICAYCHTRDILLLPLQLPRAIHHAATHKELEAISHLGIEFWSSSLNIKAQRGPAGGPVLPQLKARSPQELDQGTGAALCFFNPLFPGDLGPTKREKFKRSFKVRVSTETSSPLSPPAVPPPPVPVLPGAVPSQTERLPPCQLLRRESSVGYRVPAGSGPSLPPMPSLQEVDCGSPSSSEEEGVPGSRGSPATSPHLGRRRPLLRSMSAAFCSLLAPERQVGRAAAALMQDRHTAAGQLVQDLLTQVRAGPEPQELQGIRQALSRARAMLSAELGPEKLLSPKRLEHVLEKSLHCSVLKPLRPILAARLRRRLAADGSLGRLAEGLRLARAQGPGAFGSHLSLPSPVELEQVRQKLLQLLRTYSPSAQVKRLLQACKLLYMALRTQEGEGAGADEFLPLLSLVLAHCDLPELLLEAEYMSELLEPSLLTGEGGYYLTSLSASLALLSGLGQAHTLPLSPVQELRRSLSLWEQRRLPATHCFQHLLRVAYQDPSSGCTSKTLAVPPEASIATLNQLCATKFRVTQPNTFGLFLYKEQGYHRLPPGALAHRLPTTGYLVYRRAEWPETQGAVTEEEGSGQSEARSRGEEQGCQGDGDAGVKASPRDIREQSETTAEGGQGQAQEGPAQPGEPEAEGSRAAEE

SMILES: CC[C@]12c3[nH]c4ccc(OC)cc4c3CCN1C(=O)C(CC(=O)NCCCN(C)C)C[C@@H]2C(=O)N1CCN(C(=O)c2ccco2)CC1 (stereo partly drawn)
- IC50 [1]: 35.3 µM (inactive)

SMILES: CN1CCC(=O)N(CCOc2ccccc2)CC1
- IC50 [2]: 18.9 µM (active)
- AC50 [3]: 77.4 µM (active)

SMILES: CNC[C@@H]1Oc2cc(C#CC3CCCC3)ccc2S(=O)(=O)N([C@@H](C)CO)C[C@@H]1C
- AC50 [4]: 4.31 µM (active)

SMILES: O=C1CNC(=O)/C1=C/NC12CC3CC(CC(C3)C1)C2
- IC50 [1]: 19.4 µM (inactive)

SMILES: O=C(Nc1ccc(N2CCCC2)cc1)c1cccc(F)c1
- IC50 [5]: > 67.5 µM (inactive)
- IC50 [6]: > 67.5 µM (inactive)

SMILES: Oc1[nH]cnc2nc(-c3ccc(N(CCCl)CCCl)cc3)nc1-2
- IC50 [6]: > 67.6 µM (inactive)

SMILES: CC(C)(C)C(=O)Nc1ccccc1C(=O)NCCCn1ccnc1
- AC50 [3]: 131 µM (active)

SMILES: CCN1C(=O)C(CC(=O)Nc2ccc(OC)cc2)N(CCc2ccccc2)C1=S (stereo not drawn)
- IC50 [7]: 15 µM (inactive)
- IC50 [8]: 38.9 µM (inactive)
- IC50 [9]: 23.5 µM (inactive)

SMILES: COC(=O)/C(=C\Nc1ccccc1)NC(=O)c1ccc(Cl)cc1Cl
- IC50 [7]: 2.71 µM (active)
- IC50 [8]: 83.3 µM (inactive)
- IC50 [9]: 6.89 µM (active)

SMILES: NC(=O)c1cccc(-c2ccnc3c2CC(C(=O)Nc2ccc(Cl)cc2)O3)c1 (stereo not drawn)
- IC50 [7]: 8.03 µM (active)
- IC50 [8]: 58.1 µM (inactive)
- IC50 [9]: 18.7 µM (inactive)

SMILES: CC(C)OC(=O)c1cc(NC(=O)C2C3CCC(O3)C2C(=O)O)cc(C(=O)OC(C)C)c1 (stereo not drawn)
- Ki [10]: 41.5 µM (inactive)

SMILES: Nc1cc(Oc2ccc(Cl)cc2Cl)nc(N)n1
- IC50 [7]: 22.8 µM (inactive)
- IC50 [8]: 83.2 µM (inactive)
- IC50 [9]: 29.4 µM (inactive)

SMILES: COc1ccc(CCNC(=O)c2c(C)cc(=O)oc2C)cc1OC
- AC50 [4]: 57.6 µM (active)

SMILES: O=C(Nc1ccn(CCCN2CCN(Cc3ccc(F)cc3)CC2)c(=O)n1)OCc1ccccc1
- IC50 [1]: 20 µM (inactive)

SMILES: CCCC(=O)N1CCCC(c2cc(C(=O)Nc3ccc4c(c3)OCO4)no2)C1 (stereo not drawn)
- IC50 [5]: > 67.6 µM (inactive)
- IC50 [6]: > 67.6 µM (inactive)

SMILES: Cc1cc(C2=NN=C(NCCc3ccccc3)SC2)c(C)n1CC1CCCO1 (stereo not drawn)
- EC50 [11]: > 29.9 µM (inactive)
- EC50 [12]: 0.553 µM (active)
- IC50 [13]: 2.84 µM (active)
- EC50 [14]: 13 µM (active)
- IC50 [15]: > 29.9 µM (inactive)
- EC50 [16]: 61.9 µM (active)

SMILES: Cc1ccc(C2C(C(=O)c3ccc(Br)cc3)=C(O)C(=O)N2Cc2ccco2)o1 (stereo not drawn)
- IC50 [17]: > 100 µM (active)
- Ki [10]: > 66.7 µM (inactive)
- IC50 [18]: 66.4 µM (active)

SMILES: O=c1[nH]cnc2nc(-c3ccc(N(CCCl)CCCl)cc3)[nH]c12
- IC50 [5]: > 67.6 µM (inactive)

SMILES: Clc1ccc(Cc2nn3c(-c4ccncc4)nnc3s2)cc1
- Ki [10]: > 66.7 µM (inactive)

SMILES: O=C(NCCc1ccccc1)C(c1ccncc1)N(C(=O)c1csnn1)C1CC1 (stereo not drawn)
- EC50 [11]: > 29.9 µM (inactive)
- EC50 [12]: 2.11 µM (active)
- IC50 [13]: 7.59 µM (active)
- IC50 [15]: > 29.9 µM (inactive)

SMILES: CC(=O)Nc1ccc(Oc2nc(-c3ccccn3)nc3ccccc23)cc1
- IC50 [19]: 43.5 µM (active)
- AC50 [3]: 106 µM (active)
